Data taken from PMC10238538, “Human soluble CD39 displays substrate inhibition in a substrate-specific manner” (Scientific Reports, 2023).

Key:
[1] = molecular target: T1, Recombinant Human CD39/ENTPD1 Protein (Homo sapiens, UniProt P49961); test: Inhibition of CD39 activity by reaction products (nucleoside monophosphates), Malachite Green phosphate assay; assay type: biochemical
T1 construct: purchased R&D System (Biotechne) 4397-EN-010
T1 sequence (P49961 38-478 limits assumed): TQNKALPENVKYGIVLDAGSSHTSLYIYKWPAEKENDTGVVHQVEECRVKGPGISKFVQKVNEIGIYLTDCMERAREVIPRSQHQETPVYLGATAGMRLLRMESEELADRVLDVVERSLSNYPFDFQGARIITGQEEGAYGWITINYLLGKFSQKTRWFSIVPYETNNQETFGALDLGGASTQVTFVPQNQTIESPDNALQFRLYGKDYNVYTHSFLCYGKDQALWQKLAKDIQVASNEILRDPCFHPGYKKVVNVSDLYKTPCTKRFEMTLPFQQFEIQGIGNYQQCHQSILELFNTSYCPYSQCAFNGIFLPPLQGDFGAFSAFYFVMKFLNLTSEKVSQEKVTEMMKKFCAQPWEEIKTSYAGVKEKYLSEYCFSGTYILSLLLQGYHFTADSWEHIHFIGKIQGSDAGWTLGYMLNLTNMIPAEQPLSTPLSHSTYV

[2] = molecular target: T1, Recombinant Human CD39/ENTPD1 Protein; test: CD39 activity with varying substrate concentration (phosphate release, Malachite Green), fitted to substrate inhibition model; assay type: biochemical; conditions: for Vmax: 0.02 µg/ml enzyme, 5 mM CaCl2, 30 min, room temperature; for kcat: Vmax divided by CD39 concentration; for substrate inhibition at high substrate concentrations: result in words
[3] = molecular target: T1, Recombinant Human CD39/ENTPD1 Protein; parameters: method as in PMID 23425137; conditions: result in words; cited from earlier work
[4] = compound as substrate, Haldane substrate inhibition model
[5] = substrate inhibition constant, compound as substrate, Haldane substrate inhibition model

IC50 ([1]; 24 μM UTP as substrate) [µM] | Km [2, 4] [µM] | Vmax [2, 4] [nmol/min] | kcat ([2]; compound as substrate) [s⁻¹] | Ki [2, 5] [µM] | substrate inhibition at high substrate concentrations ([2]; compound as substrate) | IC50 ([1]; 24 μM GTP as substrate) [µM] | Ki ([2]; substrate inhibition constant as stated in text) [µM] | Compound | hydrolysis by CD39 [3]
~165 |  |  |  |  |  |  |  | O=c1ccn([C@@H]2O[C@H](COP(=O)(O)O)[C@@H](O)[C@H]2O)c(=O)[nH]1 [UMP] | 
 | 4.01 | 0.020 | 17.0 | 818 |  |  |  | Nc1ncnc2c1ncn2[C@@H]1O[C@H](COP(=O)(O)OP(=O)(O)OP(=O)(O)O)[C@@H](O)[C@H]1O [ATP] | 
 |  |  |  |  |  |  |  | CCCCSc1nc2c(N)ncnc2n1C1OC(COP(=O)(O)OP(=O)(O)OP(=O)(O)O)C(O)C1O (centres unmarked) [8-butylthio (BuS)-ATP] | resistant to hydrolysis by CD39
 | 5.37 | 0.018 | 15.3 | 1820 |  |  |  | CSc1nc(N)c2ncn([C@@H]3O[C@H](COP(=O)(O)OP(=O)(O)OP(=O)(O)O)[C@@H](O)[C@H]3O)c2n1 [2-MeS-ATP] | 
 | 9.38 | 0.024 | 20.4 | 1960 | weak substrate inhibition |  |  | O=c1ccn([C@@H]2O[C@H](COP(=O)(O)OP(=O)(O)OP(=O)(O)O)[C@@H](O)[C@H]2O)c(=O)[nH]1 [UTP] | 
 |  |  |  |  |  |  |  | CCCCSc1nc2c(N)ncnc2n1[C@@H]1O[C@H](COP(=O)(O)OP(=O)(O)O)[C@@H](O)[C@H]1O [8-BuS-ADP] | resistant to hydrolysis by CD39
 | 20.6 | 0.021 | 17.8 | 680 | Substrate inhibition was seen |  |  | Nc1nc2c(ncn2[C@@H]2O[C@H](COP(=O)(O)OP(=O)(O)OP(=O)(O)O)[C@@H](O)[C@H]2O)c(=O)[nH]1 [GTP] | 
 |  |  |  |  |  | ~350 |  | Nc1nc2c(ncn2[C@@H]2O[C@H](COP(=O)(O)O)[C@@H](O)[C@H]2O)c(=O)[nH]1 [GMP] | 
 | 13.3 | 0.025 | 21.2 |  | almost no substrate inhibition |  |  | O=c1ccn([C@@H]2O[C@H](COP(=O)(O)OP(=O)(O)O)[C@@H](O)[C@H]2O)c(=O)[nH]1 [UDP] | 
 | 26.6 | 0.022 | 18.7 |  |  |  | > 1000 | Nc1nc2c(ncn2[C@@H]2O[C@H](COP(=O)(O)OP(=O)(O)O)[C@@H](O)[C@H]2O)c(=O)[nH]1 [GDP] | 
 | 5.71 | 0.021 | 17.8 | 358 |  |  |  | Nc1ncnc2c1ncn2[C@@H]1O[C@H](COP(=O)(O)OP(=O)(O)O)[C@@H](O)[C@H]1O [ADP] | 

Compound | IC50 ([1]; 24 μM UTP as substrate) [µM] | Km [2, 4] [µM] | Vmax [2, 4] [nmol/min] | kcat ([2]; compound as substrate) [s⁻¹] | Ki [2, 5] [µM] | substrate inhibition at high substrate concentrations ([2]; compound as substrate) | IC50 ([1]; 24 μM GTP as substrate) [µM] | Ki ([2]; substrate inhibition constant as stated in text) [µM] | hydrolysis by CD39 [3]
CSc1nc(N)c2ncn([C@@H]3O[C@H](COP(=O)(O)OP(=O)(O)O)[C@@H](O)[C@H]3O)c2n1 [2-MeS-ADP, 2-methylthio-ADP] |  | 9.36 | 0.021 | 17.8 |  | no substrate inhibition |  |  | 
